Data as given in ChEMBL document CHEMBL1201862, “PubChem BioAssay data set” (2004).
The source made the active and inactive calls.

Key:
[1] = molecular target: Neuropeptide Y receptor type 2 (Homo sapiens, UniProt P49146); format: functional, cell-based;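 note: HEK293 cells expressing the receptor and a CNG channel; stimulus was NPY near EC95 followed by isoproterenol to raise cAMP; antagonist potency measured as restoring cAMP signal that NPY suppresses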
[2] = viability of HCT116 lacking mutant beta-catenin – cell-based, human colon tumor, dose response (AID 1045); format: functional;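 note: HCT116 colon tumor cells with beta catenin knocked out; cells exposed to compound for 60 hours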
[3] = molecular target: Neuropeptide Y receptor type 1 (Homo sapiens, UniProt P25929); format: functional;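 note: HEK293 cells with a CNG channel challenged with NPY then isoproterenol; potency as antagonist that reverses NPY suppression of cAMP signal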
[4] = molecular target: RNA-editing ligase 1, mitochondrial (Trypanosoma brucei brucei, UniProt P86926); test: inhibition of trypanosome RNA editing ligase – biochemical, fluorescence, Trypanosoma brucei, dose response (AID 1117295); format: functional
[5] = viability of PTEN-deleted HCT116 cells – cell-based, HCT116 PTEN knockout, dose response (AID 1047); format: functional;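 note: HCT116 colon tumor cells with PTEN knocked out; cells exposed to compound for 60 hours before readout; potency for loss of cell viability measured by luminescence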
[6] = Trypanosoma cruzi growth suppression in host cells – NIH3T3 host cells, beta-gal luminescence, confirmation (AID 2044); format: functional, cell-based;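 note: intracellular parasites grown in NIH/3T3 mouse fibroblasts as host cells; luminescent beta-galactosidase reporter signal from transgenic T. cruzi replicating inside host cells; inhibitors lower the luminescence signal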
[7] = NIH3T3 cell viability loss – ATP luminescence, mouse fibroblasts, counter-screen, dose response (AID 2010); format: functional, cell-based;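 note: cells exposed to compound for about 90 hours before reading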
Estrogen receptor beta [8] = molecular target: T1, Estrogen receptor beta (Homo sapiens, UniProt Q92731);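 note: recombinant ER-beta bound to coactivator SRC1 peptide in presence of estradiol agonist; inhibitors block coactivator peptide binding and lower the FRET signal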
Estrogen receptor beta [9] = molecular target: T1, Estrogen receptor beta; test: blockers of SRC-3 recruitment to ERβ – biochemical, ELISA, streptavidin-HRP readout, orthogonal assay, confirmation (AID 1060)
[10] = RKO cell viability reduction, dose response, CellTiter-Glo luminescence (AID 1117322); format: functional
[11] = HPDE-C7 pancreatic duct cell viability loss – fluorescence, HTS (AID 430); format: functional, cell-based; conditions: Homo sapiens
[12] = glucagon-like peptide-1 release potency in STC-1, concentration-response, half-maximal inhibitory concentration in the STC-1 line (AID 1117345); format: functional, cell-based
[13] = viability loss of HPDE-C7K cells – cell-based, fluorescence, HTS, primary screen (AID 431); format: functional; conditions: Homo sapiens
[14] = SNU-C1 cell viability reduction, dose response, CellTiter-Glo luminescence (AID 1117323); format: functional, cell-based
[15] = CellTiter-Glo luminescence survival assay, SW480 colon tumor line, concentration-response curve, half-maximal inhibitory concentration (AID 1117338); format: functional
[16] = Potency on glucagon-like peptide 1 release, dose-response in NCI-H716 cell line, half maximal inhibitory concentration (AID 1117344); format: functional, cell-based
[17] = cytotoxicity toward HT-29 cells – cell-based, CellTiter-Glo luminescence, IC50, dose response (AID 1117330); format: functional
[18] = cytotoxicity toward HCT116 cells – cell-based, CellTiter-Glo luminescence, IC50, dose response (AID 1117332); format: functional; conditions: HCT-116
[19] = cytotoxicity toward Colo320 cells – cell-based, CellTiter-Glo luminescence, IC50, dose response (AID 1117334); format: functional; conditions: COLO 320
[20] = Reduced DLD-1 viability, concentration-response, CellTiter-Glo luminescence (AID 1117352); format: functional
[21] = molecular target: T2, Ubiquitin-conjugating enzyme E2 N (Homo sapiens, UniProt P61088); format: functional;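 note: Dose-response confirmation in a TR-FRET assay detecting UBC13-driven polyubiquitin chain formation, inhibition measured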
T2 sequence (P61088 whole entry): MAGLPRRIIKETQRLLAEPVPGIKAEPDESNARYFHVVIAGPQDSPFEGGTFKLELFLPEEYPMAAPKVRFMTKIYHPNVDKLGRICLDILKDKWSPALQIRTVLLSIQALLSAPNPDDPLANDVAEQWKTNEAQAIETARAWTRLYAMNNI

[22] = HCT116 cell viability decrease, GSK3B pretreatment – CellTiter-Glo, IC50, dose response (AID 1117339); format: functional; conditions: HCT-116

T1 sequence (Q92731 whole entry): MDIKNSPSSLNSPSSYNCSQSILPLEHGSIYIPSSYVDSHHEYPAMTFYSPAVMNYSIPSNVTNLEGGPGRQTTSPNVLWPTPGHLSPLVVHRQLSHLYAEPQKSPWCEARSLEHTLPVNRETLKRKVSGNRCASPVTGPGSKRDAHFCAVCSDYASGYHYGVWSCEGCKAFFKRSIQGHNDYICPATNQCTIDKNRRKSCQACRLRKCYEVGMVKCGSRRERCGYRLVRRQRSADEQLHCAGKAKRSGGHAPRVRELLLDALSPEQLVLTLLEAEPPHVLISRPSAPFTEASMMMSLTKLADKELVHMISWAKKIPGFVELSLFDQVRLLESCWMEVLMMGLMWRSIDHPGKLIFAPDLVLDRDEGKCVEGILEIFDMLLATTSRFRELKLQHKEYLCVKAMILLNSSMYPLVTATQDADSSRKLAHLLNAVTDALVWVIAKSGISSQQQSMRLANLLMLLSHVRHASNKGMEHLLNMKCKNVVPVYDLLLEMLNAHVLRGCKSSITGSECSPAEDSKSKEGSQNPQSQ
Sequence of RNA-editing ligase 1, mitochondrial (P86926 whole entry): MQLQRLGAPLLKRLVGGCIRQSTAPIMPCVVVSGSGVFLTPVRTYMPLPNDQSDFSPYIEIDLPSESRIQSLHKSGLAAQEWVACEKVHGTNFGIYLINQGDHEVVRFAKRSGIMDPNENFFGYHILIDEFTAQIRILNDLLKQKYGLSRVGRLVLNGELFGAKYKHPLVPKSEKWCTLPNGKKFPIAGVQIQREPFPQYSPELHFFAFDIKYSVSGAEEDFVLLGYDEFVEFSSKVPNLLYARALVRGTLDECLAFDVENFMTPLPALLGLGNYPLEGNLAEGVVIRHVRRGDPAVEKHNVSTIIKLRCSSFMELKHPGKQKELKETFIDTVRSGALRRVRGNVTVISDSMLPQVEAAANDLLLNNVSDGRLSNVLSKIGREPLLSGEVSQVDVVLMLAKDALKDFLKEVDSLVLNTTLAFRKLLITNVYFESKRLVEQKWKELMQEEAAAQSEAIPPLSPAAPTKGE
Sequence of Neuropeptide Y receptor type 2 (P49146 whole entry): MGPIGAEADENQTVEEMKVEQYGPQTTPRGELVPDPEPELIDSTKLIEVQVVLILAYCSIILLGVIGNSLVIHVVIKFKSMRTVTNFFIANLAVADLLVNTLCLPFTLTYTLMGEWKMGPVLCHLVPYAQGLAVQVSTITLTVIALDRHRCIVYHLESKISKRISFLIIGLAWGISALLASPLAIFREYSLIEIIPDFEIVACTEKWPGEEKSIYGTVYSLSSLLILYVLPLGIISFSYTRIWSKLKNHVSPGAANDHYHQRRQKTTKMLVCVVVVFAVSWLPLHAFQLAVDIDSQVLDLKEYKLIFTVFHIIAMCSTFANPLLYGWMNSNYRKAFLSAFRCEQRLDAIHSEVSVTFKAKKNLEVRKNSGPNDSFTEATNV
Sequence of Neuropeptide Y receptor type 1 (P25929 whole entry): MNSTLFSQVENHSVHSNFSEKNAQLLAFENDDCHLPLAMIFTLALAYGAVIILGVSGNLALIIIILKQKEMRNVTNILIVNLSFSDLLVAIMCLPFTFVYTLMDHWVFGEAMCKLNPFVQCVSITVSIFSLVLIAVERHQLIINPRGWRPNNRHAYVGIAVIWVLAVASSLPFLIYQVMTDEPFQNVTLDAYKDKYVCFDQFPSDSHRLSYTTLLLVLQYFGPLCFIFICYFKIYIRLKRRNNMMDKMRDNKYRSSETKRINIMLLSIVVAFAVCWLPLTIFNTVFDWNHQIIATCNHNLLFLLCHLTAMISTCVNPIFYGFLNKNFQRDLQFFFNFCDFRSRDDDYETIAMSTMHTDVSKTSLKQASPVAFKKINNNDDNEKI

For `Cc1cc(Cl)c(OCCCNCc2ccccc2)c(Br)c1`, the IC50 [1] was 5.15 µM (active), the EC50 [2] was 16.5 µM (active) and the IC50 [3] was 5.39 µM (active). For the same molecule, the IC50 [4] was > 96.6 µM (inactive), the EC50 [5] was 21.9 µM (active) and the EC50 [6] was 1.86 µM (active). The EC50 [7] was 14.3 µM (active).

For `CCOC(=O)Cn1cnc2sc3c(c2c1=O)CCC3`, the IC50 (Estrogen receptor beta [8]) was 3.62 µM (active) and the IC50 (Estrogen receptor beta [9]) was 106 µM (not active).

With `CN(C)c1ccc(NC(=O)N2CCOCC2)cc1` the IC50 (Estrogen receptor beta [9]) was 0.0633 µM (not active).

With `CN1CCN(CCCN2c3ccccc3Sc3ccc(C(F)(F)F)cc32)CC1` the IC50 [10] was 0.565 µM (active), the EC50 [11] was 11.9 µM (active) and the EC50 [2] was 11.7 µM (active). For the same molecule, the IC50 [12] was > 40 µM (inactive), the EC50 [13] was 7.72 µM (active) and the IC50 [14] was 2.63 µM (active). For the same molecule, the IC50 [15] was 2.72 µM (active), the IC50 [16] was > 40 µM (inactive) and the EC50 [5] was 11.9 µM (active). For the same molecule, the IC50 [17] was 2.81 µM (active), the IC50 [18] was 7.22 µM (inactive) and the IC50 [19] was 2.36 µM (active). For the same molecule, the IC50 [20] was 7.35 µM (inactive), the IC50 [21] was > 20 µM (inactive) and the IC50 [22] was 3.23 µM (active).
